Results reported in patent US10945986B2, “Treatment for ischemic stroke” (CHS Pharma, Inc., priority 2012, dated 2021).

Columns and labels:
[1] = test system: Bcl-2; assay: Western blot of Bcl-2 in core and penumbra, MCAO model; type: in vivo, rat
[2] = test system: P-IRE-1; assay: P-IRE-1 expression (Western blot) in primary neuronal cultures subjected to hypoxia and reoxygenation; type: cell-based; details: 24 hours hypoxia, 16 hours reoxygenation; densitometry vs actin
Experimental: (§1) Primary neuronal cultures were subjected to 24 hours of hypoxia followed by 16 hours of reoxygenation and cells were harvested for protein extraction and Western blot analysis for expression of P-IRE-1. Levels of P-IRE-1 were quantified by densitometry and expressed as a percentage of the signal for actin control samples.

[3] = test system: Hsp27; assay: Western blot of Hsp27 in core and penumbra, MCAO model; type: in vivo, rat; details: DETC-MeSO treatment prior to MCAO surgery and reperfusion, N=8
From the text: Western blotting on the core and the penumbra tissue of both hemispheres was employed for analysis of the expression of key proteins involved in apoptosis (Bcl-2), and cell protection and survival e.g., two heat shock proteins (HSP27, HSP70) and AKT.

[4] = test system: middle cerebral artery occlusion (MCAO) stroke-induced brain infarction; assay: MCAO rat stroke model, infarct size by TTC staining; type: in vivo, Sprague-Dawley rats; details: for reduction of ischemia-induced brain infarct size: DETC-MeSO 5.6 mg/kg i.p. 24 hr post MCAO/reperfusion, 8 animals; for effect of individual drug on ischemia-induced infarct size: individual drug at 1/10 dose (G-CSF 10 ug/kg; DETC-MeSO 0.56 mg/kg; sulindac 0.2 mg/kg), 24 hrs post MCAO
[5] = test system: C/EBP homologues protein (CHOP); assay: CHOP expression (Western blot) in primary neuronal cultures subjected to hypoxia and reoxygenation; type: cell-based; details: 24 hours hypoxia, 16 hours reoxygenation; densitometry vs actin
Experimental: as §1, with “CHOP.” for “P-IRE-1.”, “CHOP” for “P-IRE-1”

[6] = test system: CHOP; assay: Western blot of CHOP, MCAO model; type: in vivo, rat; details: G-CSF, Western blotting
[7] = test system: JNK; details: rat, in vivo
[8] = test system: pAKT; details: rat, in vivo

CCN(CC)C(=O)[S+](C)[O-] (stereo not drawn) [DETC-MeSO, S-methyl-N, N-diethylthiolcarbamate sulfoxide]
Bcl-2 expression vs non-treated control animals ([1]; DETC-MeSO treatment prior to MCAO surgery and reperfusion, core and penumbra, N=8): significantly increased | P-IRE-1 expression of hypoxia cells compared to DETC-MeSO-treated cells subjected to hypoxia [2]: 3-3.5 times | Hsp-27 expression vs non-treated control animals [3]: significantly increased | infarct size as % of the area of the infarcts in the no-drug control group ([4]; 2 injections: 60 minutes before ischemia and 20 minutes before start of reperfusion, TTC): 29% | reduction of ischemia-induced brain infarct size ([4]; daily, 4 days): 64+/−11% | reduction of ischemia-induced brain infarct size ([4]; daily, 8 days): 61+/−7% | brain infarct size (morphological observation, TTC) ([4]; DETC-MeSO 5.6 mg/kg intraperitoneal 24 hr post MCAO/reperfusion, daily, both 4 and 8 days): significantly reduced | brain infarct size ([4]; DETC-MeSO 5.6 mg/kg one hour before MCAO surgery and reperfusion, continued 4 days, sacrificed 4th day, 1% TTC): significantly reduced | decrease in infarct size compared with the no-drug treated group ([4]; DETC-MeSO 5.6 mg/kg pre-MCAO, 4 days, at 6 mm from frontal pole, N=21): 50% | brain infarct size compared to the control group ([4]; DETC-MeSO 1-7 mg, two injections (1 hr before MCAO surgery, day 11), sacrificed 11th day, 1% TTC): significantly reduced | effect of individual drug on ischemia-induced infarct size ([4]; 8 days): no significant effect | CHOP expression of hypoxia cells compared to DETC-MeSO-treated cells subjected to hypoxia [5]: about double

B1: granulocyte colony-stimulating factor (protein, UniProt P09919 31-207, looked up)
Granulocyte …: TPLGPASSLPQSFLLKCLEQVRKIQGDGAALQEKLVSECATYKLCHPEELVLLGHSLGIPWAPLSSCPSQALQLAGCLSQLHSGLFLYQGLLQALEGISPELGPTLDTLQLDVADFATTIWQQMEELGMAPALQPTQGAMPAFASAFQRRAGGVLVASHLQSFLEVSYRVLRHLAQP
notes: granulocyte colony-stimulating factor; a stem cell enhancer and facilitator
Bcl-2 expression (pro-survival/anti-apoptotic marker) ([1]; rat, in vivo): up-regulation | CHOP expression (pro-apoptotic protein) [6]: down-regulation | JNK expression (pro-survival/anti-apoptotic marker) [7]: up-regulation | ischemia-induced brain infarct size vs non-treated control animals ([4]; G-CSF 50 μg/kg, 24 hours post ischemia): greatly reduced | infarct volume vs control group ([4]; G-CSF 50 μg/kg, 24 hours post ischemia, n=5): significantly reduced | percentage of infarct volume in entire brain vs control group ([4]; G-CSF 50 μg/kg, 24 hours post ischemia, n=5, P<0.05): significantly reduced | effect of individual drug on ischemia-induced infarct size ([4]; 8 days): no significant effect | pAKT expression (pro-survival/anti-apoptotic marker) [8]: up-regulation
